Reference: patent US20110098296A1, “Thiazole And Oxazole Kinase Inhibitors” (priority 2007, published 2011)
Where a name gives a salt, the structure may show the parent alone.

What was measured:
HN5 tumor cells [1] = assay: Method A: Methylene Blue Growth Inhibition Assay, HN5; assay type: cell-based; details: Homo sapiens, 72 h, 3 days
Description: (§1) Human breast (BT474) and head and neck (HN5) tumor cells were cultured in low glucose DMEM (Life Technologies 12320-032) containing 10% fetal bovine serum (FBS). Human colon tumor cells (Colo205) were cultured in DMEM (Invitrogen, 10564) containing 10% FBS. The SV40 transformed human mammary epithelial cell line HB4a was transfected with either human H-ras cDNA (HB4a r4.2) or the human c-ErbB2 cDNA (HB4a c5.2). The HB4a clones were cultured in RPMI containing 10% FBS, insulin (5 g/mL), hydrocortisone (5 g/mL), supplemented with the selection agent hygromycin B (50 g/mL). All lines were grown in a humidified incubator at 37° C. in 95% air, 5% CO2. Cells were harvested using trypsin/EDTA, counted using a haemocytometer, and plated in 100 μL of the appropriate media, at the following densities, in a 96-well tissue culture plate (Falcon 3075): BT474 10,000 cells/well, HN5 3,000 cells/well. The next day, compounds were diluted in DMEM containing […] gentamicin, at twice the final required concentration, from 10 mM stock solutions in DMSO. 100 μl/well of these dilutions were added to the 100 μL of media currently on the cell plates. Medium containing 0.6% DMSO was added to control wells. Compounds diluted in DMEM were added to all cell lines. The final concentration of DMSO in all wells was 0.3%. Cells were returned to the incubator (37° C., […]) for 3 days. Medium was then removed by aspiration. Cell biomass was estimated by staining cells with 90 μL/well methylene blue (Sigma M9140, 0.5% in 1:1 EtOH:H2O), and incubation at room temperature for at least 30 minutes. Stain was removed, and the plates rinsed by immersion in deionized H2O and air-dried. To release stain from the cells 100 μL of solubilization solution were added (1% N-lauroyl sarcosine, sodium salt, Sigma L5125, in PBS), and plates were shaken gently for about 30 minutes. Optical density at 620 nm was measured on a microplate reader. Percent inhibition of cell growth was calculated relative to vehicle-treated control wells. Concentration of compound that inhibits 50% of control cell growth (IC50) was interpolated using nonlinear regression (Levenberg-Marquardt) and the equation,
(§2) y=Vmax*(1−(x/(K+x)))+Y2, where “K” was equal to the IC50.

BT474 tumor cells [2] = assay: Method A: Methylene Blue Growth Inhibition Assay, BT474; assay type: cell-based; details: Homo sapiens, BT-474, 72 h, 3 days
Description: as §1, §2

ErbB2 = target: T1, ErbB2 (Homo sapiens, UniProt P04626); assay: ErbB-2 substrate phosphorylation assay (HTRF); assay type: biochemical
T1 construct: made in house; host or cells: baculovirus expression system
T1 sequence (P04626 23-1255): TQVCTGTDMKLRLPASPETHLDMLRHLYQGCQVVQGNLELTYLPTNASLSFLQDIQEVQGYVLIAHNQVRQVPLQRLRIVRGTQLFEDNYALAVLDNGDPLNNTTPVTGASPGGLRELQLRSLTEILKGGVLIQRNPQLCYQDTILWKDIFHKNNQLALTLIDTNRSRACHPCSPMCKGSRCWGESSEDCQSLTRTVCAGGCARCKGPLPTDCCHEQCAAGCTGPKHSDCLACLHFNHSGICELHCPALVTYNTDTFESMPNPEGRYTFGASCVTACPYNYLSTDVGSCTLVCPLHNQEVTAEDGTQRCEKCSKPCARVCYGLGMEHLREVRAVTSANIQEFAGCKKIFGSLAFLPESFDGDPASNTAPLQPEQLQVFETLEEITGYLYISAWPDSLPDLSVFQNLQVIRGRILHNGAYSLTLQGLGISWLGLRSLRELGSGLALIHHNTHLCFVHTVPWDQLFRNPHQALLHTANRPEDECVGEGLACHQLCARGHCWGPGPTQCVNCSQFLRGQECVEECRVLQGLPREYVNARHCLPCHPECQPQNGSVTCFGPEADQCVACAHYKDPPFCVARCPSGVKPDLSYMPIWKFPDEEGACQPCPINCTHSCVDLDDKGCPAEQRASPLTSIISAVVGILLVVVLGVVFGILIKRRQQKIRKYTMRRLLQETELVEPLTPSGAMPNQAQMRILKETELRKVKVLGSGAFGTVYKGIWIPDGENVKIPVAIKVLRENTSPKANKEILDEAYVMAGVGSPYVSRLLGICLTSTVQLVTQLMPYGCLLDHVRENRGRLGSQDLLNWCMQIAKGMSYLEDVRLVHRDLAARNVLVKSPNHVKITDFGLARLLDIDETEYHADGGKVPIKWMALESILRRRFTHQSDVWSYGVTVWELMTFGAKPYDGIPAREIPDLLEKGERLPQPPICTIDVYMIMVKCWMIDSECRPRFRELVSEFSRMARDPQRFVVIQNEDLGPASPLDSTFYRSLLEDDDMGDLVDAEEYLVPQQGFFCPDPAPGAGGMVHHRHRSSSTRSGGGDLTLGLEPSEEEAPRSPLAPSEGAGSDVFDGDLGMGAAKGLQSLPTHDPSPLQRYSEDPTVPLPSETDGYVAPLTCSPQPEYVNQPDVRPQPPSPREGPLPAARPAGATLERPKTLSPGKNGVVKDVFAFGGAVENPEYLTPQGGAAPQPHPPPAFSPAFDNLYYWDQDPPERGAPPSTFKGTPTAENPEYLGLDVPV
How it was run: (§3)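 Baculovirus-expressed kinase (0.8 nM EGFR or 10 nM ErbB2 in enzyme mix) with Peptide C 0.8 μM and ATP 20 μM (substrate-mix levels), MOPS pH 7.5, MnCl2; 90 min, 20 °C, HTRF anti-phosphotyrosine. Method A adds 1 h enzyme–compound preincubation; B none. pIC50, final compound 0.00027–47.6 μM.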

EGFR = target: T2, EGFR (Homo sapiens, UniProt P00533); assay: EGFR substrate phosphorylation assay (HTRF); assay type: biochemical; details: Method (A): Enzyme Mix incubated with compound at 20° C. for 1 hr, reaction started by adding Substrate Mix
T2 construct: made in house; host or cells: baculovirus expression system
T2 sequence (P00533 25-1210): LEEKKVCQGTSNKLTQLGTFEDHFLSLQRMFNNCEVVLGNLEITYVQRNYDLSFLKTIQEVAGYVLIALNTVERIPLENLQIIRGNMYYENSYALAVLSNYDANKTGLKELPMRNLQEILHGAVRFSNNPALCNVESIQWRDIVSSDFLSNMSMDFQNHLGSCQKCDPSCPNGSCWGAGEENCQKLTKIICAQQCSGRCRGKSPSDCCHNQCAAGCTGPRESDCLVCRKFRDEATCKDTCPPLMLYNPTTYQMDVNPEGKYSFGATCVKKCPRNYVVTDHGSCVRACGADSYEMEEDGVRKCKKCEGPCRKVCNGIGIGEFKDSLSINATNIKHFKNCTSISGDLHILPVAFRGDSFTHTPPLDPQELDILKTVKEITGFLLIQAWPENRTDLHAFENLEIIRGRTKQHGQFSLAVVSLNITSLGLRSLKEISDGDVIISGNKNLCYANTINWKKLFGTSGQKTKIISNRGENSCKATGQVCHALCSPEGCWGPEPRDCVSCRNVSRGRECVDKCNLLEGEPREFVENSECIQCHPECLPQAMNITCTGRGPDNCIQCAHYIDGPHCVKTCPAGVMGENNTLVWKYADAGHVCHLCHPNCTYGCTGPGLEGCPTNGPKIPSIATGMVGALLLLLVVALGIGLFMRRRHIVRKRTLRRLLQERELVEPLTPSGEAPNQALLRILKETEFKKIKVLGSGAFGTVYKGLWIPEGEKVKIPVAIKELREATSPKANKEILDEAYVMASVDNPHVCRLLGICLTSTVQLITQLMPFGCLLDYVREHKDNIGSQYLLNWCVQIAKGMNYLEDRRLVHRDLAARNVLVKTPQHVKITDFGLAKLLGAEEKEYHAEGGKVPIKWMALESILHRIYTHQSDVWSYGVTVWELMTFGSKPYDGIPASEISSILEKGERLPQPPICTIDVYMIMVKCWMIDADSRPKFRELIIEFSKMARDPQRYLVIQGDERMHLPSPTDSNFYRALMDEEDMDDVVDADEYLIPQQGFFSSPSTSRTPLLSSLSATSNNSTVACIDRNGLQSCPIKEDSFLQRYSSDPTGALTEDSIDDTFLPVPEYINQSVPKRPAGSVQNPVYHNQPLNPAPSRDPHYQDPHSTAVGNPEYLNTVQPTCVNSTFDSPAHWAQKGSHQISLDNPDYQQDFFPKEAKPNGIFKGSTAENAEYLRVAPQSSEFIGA
How it was run: as §3

Colo205 tumor cells [3] = assay: Method A: Methylene Blue Growth Inhibition Assay, Colo205; assay type: cell-based; details: Homo sapiens, COLO 205, 72 h, 3 days
Description: as §1, §2

HN5 tumor cells [4] = assay: Method B: CellTiter-Glo Growth Inhibition Assay, HN5; assay type: cell-based; details: Homo sapiens, 72 h, 3 days
Description: (§4) Human breast tumor cells (BT474) were cultured in RPMI, (Invitrogen, 22400) containing 10% fetal bovine serum (FBS). Human head and neck tumor cells (HN5) were cultured in low glucose DMEM (Invitrogen, 12320) containing 10% FBS. Human colon tumor cells (Colo205) were cultured in DMEM (Invitrogen, 10564) containing 10% FBS. Human melanoma cancer cells (SK-MEL-28) were incubated in DMEM (Invitrogen). All cell lines were maintained at 37° C. in a humidified 5% CO2, 95% air incubator. Cells were harvested using trypsin/EDTA, counted using a haemocytometer, and plated in 30 μL of the appropriate media described above, at the following densities, in a half-area, black-walled, 96-well tissue culture plate (Corning 3882): BT474 3,000 cells/well, HN5 500 cells/well, Colo205 3,000 cells/well, and SK-MEL-28 500 cells/well). The next day, compounds were diluted in DMEM containing […] gentamicin, from 10 mM stock solutions in DMSO. 30 μL/well of these dilutions were added to the 30 μL/well of media currently on the cell plates. Medium containing 0.6% DMSO was added to control wells. The final concentration of DMSO in all wells was 0.3%. Cells were incubated at 37° C., 5% CO2 for 3 days. Cell biomass was estimated using CellTiter-Glo® reagent (Promega G7571). Briefly, plates were removed from the incubator and allowed to equilibrate to rt for 30 minutes. 25-60 μL of CellTiter-Glo® reagent were added to each well of the treated cells and plates were shaken on an orbital plate shaker for 2 mins. Plates were incubated without shaking for 30 more mins and read in a luminometer with an integration time of 0.5 seconds per well. Percent inhibition of cell growth was calculated relative to vehicle-treated control wells. Concentration of compound that inhibits 50% of vehicle control cell growth (IC50) was interpolated using nonlinear regression (Levenberg-Marquardt) and the equation, y=V max*(1−(x/(K+x)))+Y2, where “K” was equal to the IC50.

Colo205 tumor cells [5] = assay: Method B: CellTiter-Glo Growth Inhibition Assay, Colo205; assay type: cell-based; details: Homo sapiens, COLO 205, 72 h, 3 days
Description: as §4

BT474 tumor cells [6] = assay: Method B: CellTiter-Glo Growth Inhibition Assay, BT474; assay type: cell-based; details: Homo sapiens, BT-474, 72 h, 3 days
Description: as §4

[7] = Method (A): Enzyme Mix incubated with compound at 20° C. for 1 hr, reaction started by adding Substrate Mix

Row | SMILES | IC50 (HN5 tumor cells [1]) | IC50 (BT474 tumor cells [2]) | IC50 (ErbB2; [7]) | IC50 (EGFR) | IC50 (Colo205 tumor cells [3]) | IC50 (HN5 tumor cells [4]) | IC50 (Colo205 tumor cells [5]) | IC50 (BT474 tumor cells [6]) | IC50 (ErbB2; Method (B): Substrate Mix added to compound first, reaction started by adding Enzyme Mix)
1 | O=C(Nc1cccc(-c2nc(NCCN3CCOCC3)sc2-c2ccnc(Nc3ccc4c(c3)CNCC4)n2)c1)c1c(F)cccc1F [Example 1, 2,6-Difluoro-N-(3-{2-{[2-(4-morpholinyl)ethyl]amino}-5-[2-(1,2,3,4-tetrahydro-7-isoquinolinylamino)-4-pyrimidinyl]-1,3-thiazol-4-yl}phenyl)benzamide] | < 100 nM | < 100 nM | < 100 nM | < 100 nM | 100 to 1000 nM | – | – | – | –
2 | COCCOc1ccc(Nc2nccc(-c3sc(N)nc3-c3cccc(NC(=O)c4c(F)cccc4F)c3)n2)cc1F [Example 3] | < 100 nM | < 100 nM | < 100 nM | < 100 nM | 100 to 1000 nM | – | – | – | –
3 | COc1ccc(Nc2nccc(-c3scnc3-c3cccc(NC(=O)Cc4cccs4)c3)n2)cc1OCCN(C)C [Example 78, N-{3-[5-(2-{[3-{[2-(Dimethylamino)ethyl]oxy}-4-(methyloxy)phenyl]amino}-4-pyrimidinyl)-1,3-thiazol-4-yl]phenyl}-2-(2-thienyl)acetamide] | – | – | < 100 nM | < 100 nM | – | 100 to 1000 nM | 100 to 1000 nM | 100 to 1000 nM | –
4 | CN(C)Cc1cccc(Nc2nccc(-c3scnc3-c3cccc(NC(=O)Cc4cccs4)c3)n2)c1 [Example 81] | – | – | < 100 nM | < 100 nM | – | 100 to 1000 nM | 100 to 1000 nM | 100 to 1000 nM | –
5 | CCN(CC)CCOc1cccc(Nc2nccc(-c3scnc3-c3cccc(NC(=O)Cc4cccs4)c3)n2)c1 [Example 82, N-[3-(5-{2-[(3-{[2-(Diethylamino)ethyl]oxy}phenyl)amino]-4-pyrimidinyl}-1,3-thiazol-4-yl)phenyl]-2-(2-thienyl)acetamide] | – | – | < 100 nM | < 100 nM | – | 100 to 1000 nM | 100 to 1000 nM | 100 to 1000 nM | –
6 | CN(C)C1Cc2ccc(Nc3nccc(-c4scnc4-c4cccc(NC(=O)Cc5cccs5)c4)n3)cc2C1 (stereo not shown) [Example 83, N-{3-[5-(2-{[2-(Dimethylamino)-2,3-dihydro-1H-inden-5-yl]amino}-4-pyrimidinyl)-1,3-thiazol-4-yl]phenyl}-2-(2-thienyl)acetamide] | – | – | < 100 nM | < 100 nM | – | 100 to 1000 nM | 100 to 1000 nM | < 100 nM | –
7 | O=C(Cc1cccs1)Nc1cccc(-c2ncsc2-c2ccnc(Nc3ccc4c(c3)OCC(=O)N4)n2)c1 [Example 85, N-[3-(5-{2-[(3-Oxo-3,4-dihydro-2H-1,4-benzoxazin-7-yl)amino]-4-pyrimidinyl}-1,3-thiazol-4-yl)phenyl]-2-(2-thienyl)acetamide hydrochloride] | – | – | < 100 nM | < 100 nM | – | 100 to 1000 nM | > 1000 nM | 100 to 1000 nM | –

Further lines, results first:

Row | IC50 (HN5 tumor cells [1]) | IC50 (BT474 tumor cells [2]) | IC50 (ErbB2; [7]) | IC50 (EGFR) | IC50 (Colo205 tumor cells [3]) | IC50 (HN5 tumor cells [4]) | IC50 (Colo205 tumor cells [5]) | IC50 (BT474 tumor cells [6]) | IC50 (ErbB2; Method (B): Substrate Mix added to compound first, reaction started by adding Enzyme Mix) | SMILES
8 | – | – | 100 to 1000 nM | < 100 nM | – | 100 to 1000 nM | 100 to 1000 nM | 100 to 1000 nM | – | O=C(Cc1cccs1)Nc1cccc(-c2ncsc2-c2ccnc(Nc3ccc4c(c3)NC(=O)CO4)n2)c1 [Example 86, N-[3-(5-{2-[(3-Oxo-3,4-dihydro-2H-1,4-benzoxaziN-6-yl)amino]-4-pyrimidinyl}-1,3-thiazol-4-yl)phenyl]-2-(2-thienyl)acetamide hydrochloride]
9 | < 100 nM | 100 to 1000 nM | – | 100 to 1000 nM | – | – | – | – | 100 to 1000 nM | O=C(Nc1cccc(-c2ncsc2-c2ccnc(Nc3cccc(F)c3)n2)c1)c1c(F)cccc1F [Example 88]
10 | – | – | < 100 nM | < 100 nM | – | < 100 nM | 100 to 1000 nM | < 100 nM | – | CN(C)CCOc1ccc(Nc2nccc(-c3scnc3-c3cccc(NC(=O)c4c(F)cccc4F)c3)n2)cc1Cl [Example 89]
11 | – | – | < 100 nM | < 100 nM | – | < 100 nM | 100 to 1000 nM | < 100 nM | – | O=C(Nc1cccc(-c2ncsc2-c2ccnc(Nc3ccc4c(c3)CNCC4)n2)c1)c1c(F)cccc1F [Example 91, 2,6-Difluoro-N-(3-{5-[2-(1,2,3,4-tetrahydro-7-isoquinolinylamino)-4-pyrimidinyl]-1,3-thiazol-4-yl}phenyl)benzamide]
12 | – | – | < 100 nM | < 100 nM | – | < 100 nM | 100 to 1000 nM | < 100 nM | – | CCN(CC)CCOc1cccc(Nc2nccc(-c3scnc3-c3cccc(NC(=O)c4c(F)cccc4F)c3)n2)c1 [Example 92, N-[3-(5-{2-[(3-{[2-(Diethylamino)ethyl]oxy}phenyl)amino]-4-pyrimidinyl}-1,3-thiazol-4-yl)phenyl]-2,6-difluorobenzamide-formic acid]
13 | – | – | < 100 nM | < 100 nM | – | < 100 nM | > 1000 nM | < 100 nM | – | O=C1COc2cc(Nc3nccc(-c4scnc4-c4cccc(NC(=O)c5cc(F)ccc5F)c4)n3)ccc2N1 [Example 98, 2,5-Difluoro-N-[3-(5-{2-[(3-oxo-3,4-dihydro-2H-1,4-benzoxaziN-7-yl)amino]-4-pyrimidinyl}-1,3-thiazol-4-yl)phenyl]benzamide hydrochloride]
14 | – | – | < 100 nM | < 100 nM | – | 100 to 1000 nM | > 1000 nM | 100 to 1000 nM | – | O=C1COc2ccc(Nc3nccc(-c4scnc4-c4cccc(NC(=O)c5cc(F)ccc5F)c4)n3)cc2N1 [Example 99, 2,5-Difluoro-N-[3-(5-{2-[(3-oxo-3,4-dihydro-2H-1,4-benzoxaziN-6-yl)amino]-4-pyrimidinyl}-1,3-thiazol-4-yl)phenyl]benzamide hydrochloride]
15 | – | – | < 100 nM | < 100 nM | – | < 100 nM | > 1000 nM | < 100 nM | – | Cc1nc(-c2cccc(NC(=O)c3c(F)cccc3F)c2)c(-c2ccnc(Nc3cccc(F)c3)n2)s1 [Example 101, 2,6-Difluoro-N-[3-(5-{2-[(3-fluorophenyl)amino]-4-pyrimidinyl}-2-methyl-1,3-thiazol-4-yl)phenyl]benzamide]
16 | – | – | > 1000 nM | 100 to 1000 nM | – | > 1000 nM | > 1000 nM | > 1000 nM | – | Cc1nc(-c2cccc(NC(=O)Cc3cccs3)c2)c(-c2ccnc(Nc3cccc(F)c3)n2)s1 [Example 138, N-[3-(5-{2-[(3-Fluorophenyl)amino]-4-pyrimidinyl}-2-methyl-1,3-thiazol-4-yl)phenyl]-2-(2-thienyl)acetamide]
